Assay results taken from article PMC3216299 (Bioorganic & medicinal chemistry, 2011).

Experiments:
tubulin = test: Tubulin polymerization inhibition; assay type: biochemical, mammalian; settings: 100 μM
Mtb H37Rv = Mtb H37Rv growth inhibition; assay type: cell-based, Mycobacterium tuberculosis

| SMILES | Tubulin Polymerization inhibition (tubulin) [% inhibition 100 μM] | IC90 (H37Rv) fold less active than lead compound 2 (Mtb H37Rv) [fold] | IC90 (Mtb H37Rv; Mycobacterium tuberculosis, H37RV, read-out: Mtb H37Rv IC90, extrapolated from 10 point dose response curve) [µM] |
| --- | --- | --- | --- |
| CCOC(=O)Nc1nc(NC(C)CCCN(CC)CC)c2nc(-c3ccccc3)c(-c3ccccc3)nc2n1 (centres unmarked) [Compound 2, reference compound] | 24 | – | – |
| CCOC(=O)Nc1cc(NCCCCN(CC)CC)c2nc(-c3ccccc3)c(-c3ccccc3)nc2n1 [Compound 17, Ethyl (8-((4-(diethylamino)butyl)amino)-2,3-diphenylpyrido[2,3-b]pyrazin-6-yl)carbamate] | 40 | – | – |
| CCOC(=O)Nc1nc(NC(C)CCCN(CC)CC)c2c(n1)SC(c1ccccc1)C(c1ccccc1)=N2 (centres unmarked) [Compound 37, Ethyl (4-((5-(diethylamino)pentan-2-yl)amino)-6,7-diphenyl-7H-pyrimido[4,5-b][1,4]thiazin-2-yl) carbamate] | – | 10 | – |
| CCOC(=O)Nc1nc(NCCCCN(CC)CC)c2c(n1)SC(c1ccccc1)C(c1ccccc1)=N2 (centres unmarked) [Compound 38, Ethyl (4-((4-(diethylamino)butyl)amino)-6,7-diphenyl-7H-pyrimido[4,5-b][1,4]thiazin-2-yl)carbamate] | – | 10 | 18.5 |
